# Assay results taken from patent US20240049707A1, “PESTICIDE COMPOSITIONS OF LICOCHALCONE C” (METABOLIC INSIGHTS LTD., priority 2020, published 2024).
# System: Pythium aphanidermatum
# Assay: In-vivo validation under greenhouse conditions in cucumber seedlings infected with Pythium aphanidermatum
# Conditions: preventative treatment 24 h before inoculation; 2 types of formulations; 100 to 400 ppm; evaluated 7 days after inoculation
# Description: FIGS. 1-8 show the effect of Licochalcone C (LIC) on cucumber seedlings survival in 8 independent experiments determined as percentage of disease severity 7 days following inoculation with Pythium aphanidermatum. FIGS. 9-11 show effect of Licochalcone C (LIC) on cucumber seedlings survival in 3 independent experiments determined as of disease severity 7 days following inoculation with Rhizoctonia solani. * means that p-value <0.05, ** means that p-value is <0.01, # means that p-value <0.1, n.s. means non-significant difference vs. non-treated plants. For formulation description used for Licochalcone C see Example 7.
# To evaluate the effect of a Licochalcone C in infected plants compared to control plants (infected but not treated) the data was analysed by Student's t-test and the p-value is calculated. The minimum number of repeats in each experiment was 3. Results were considered significant if p<0.05. The data presented as mean with standard error mean from biological replicates. * means that p-value <0.05, ** means that p-value is <0.01, # means that p-value <0.1. […]
# General description: Pythium aphanidermatum disease severity development was evaluated following preventative treatment by Licochalcone C (LIC) […]
structure (smiles),measurement,value
"COc1c(/C=C/C(=O)c2ccc(O)cc2)ccc(O)c1CC=C(C)C [Licochalcone C, (E)-3-[4-hydroxy-2-methoxy-3-(3-methylbut-2-enyl)phenyl]-1-(4-hydroxyphenyl)prop-2-en-1-one]",efficacy in preventing Pythium disease in cucumber seedling,up to 100%
